Test results taken from the METLIN SMRT retention time set (Domingo-Almenara et al. 2019).

experiment: gradient 5% acetonitrile 3 min, to 50% in 2 min, to 85% in 15 min, held 3 min, 100 µL/min; conditions: column: Zorbax Extend-C18 2.1 x 50 mm; eluents: water / acetonitrile, 0.1% formic acid
In short: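 Retention time was recorded from adduct peaks, which were picked computationally and each inspected manually. Pure standards ran in mixtures of ~100 molecules on HPLC coupled to a quadrupole time-of-flight mass spectrometer, in positive and negative ionization mode, through a Zorbax Extend-C18 column (2.1 × 50 mm, 1.8 μm) at 100 μL/min. Eluents were water and acetonitrile, each with 0.1% formic acid.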

| SMILES | RP-LC retention time |
| --- | --- |
| COc1ccc(-n2c(=O)c(C(=O)NCc3ccco3)c(O)c3cccnc32)cc1 | 1050 s |
| COc1ccc(-n2ccc(=O)c(-c3nc(-c4ccc5c(c4)OCO5)no3)n2)cc1 | 855 s |
| COc1ccc(-c2nnc(SCc3cc(=O)n4c(C)csc4n3)o2)cc1OC | 762 s |
| COc1ccc(CNC(=O)C2CCCN(c3nc4ccccc4n(Cc4ccccc4)c3=O)C2)cc1 (centres undefined) | 1090 s |
| COc1ccc(C(C)NC(=O)C2CCCN(c3cnc4nccnc4c3)C2)cc1OC (centres undefined) | 663 s |
| CC(C)(C)c1ccc(C(=O)N2CCC3(CC2)N=C(c2ccccc2)NO3)cc1 | 991 s |
| Cc1sc2ccn(CC(C)C)c(=O)c2c1C(=O)N1CCN(c2ccccn2)CC1 | 618 s |
| O=C(NC1CC1)c1ccc(OCC2CCCN(C(=O)c3ccoc3)C2)cc1 (centres undefined) | 712 s |
| CCOc1ccc(CN2CCc3nc(N4CCN(c5ccccc5F)CC4)ncc3C2)cc1 | 834 s |
| COCC1CN(C(C)=O)CC12CCN(C(=O)CSC)CC2 (centres undefined) | 602 s |
| CCOc1ccc(C2Cn3nnc(-c4nc(-c5ccccc5F)no4)c3CO2)cc1 (centres undefined) | 1100 s |
| CCCn1cc(S(=O)(=O)Nc2cccc(F)c2)c2cccnc21 | 883 s |
| O=C(Cn1cnc(-c2noc(-c3ccncc3)n2)c1)NCc1ccc(Cl)cc1 | 695 s |
| CCOC(=O)Cc1csc(NC(=O)c2ccc(-c3nc4ccccc4s3)s2)n1 | 1010 s |
| O=C(Cn1ccn2nc(-c3ccc(F)cc3)c(CO)c2c1=O)N1CCCc2ccccc21 | 899 s |
| O=C1NCCOCCCN(C(=O)Nc2ccccc2)[C@H]2CCCC[C@@H]12 | 672 s |
| Cc1nc(-c2ccc(OC3CCN(C(=O)c4nn(C)c5ccccc45)C3)cc2)no1 (centres undefined) | 942 s |
| O=C(c1ccc[nH]1)N1CCN(C(=O)c2nnn3c2COC(c2ccc(Cl)cc2)C3)CC1 (centres undefined) | 839 s |
| O=C(NC1CCCC1)c1nc2ccccn2c1-c1ccc(F)cc1 | 826 s |
| COc1cc(CN(C(=O)c2ccc(OC(C)C)cc2)C2CCS(=O)(=O)C2)cc(OC)c1OC (centres undefined) | 868 s |
| CC(=O)N1CCc2sc(C(=O)NCc3ccccc3Br)cc2C1 | 770 s |
| CCn1cc(C)c(C(=O)O)c1CC(=O)NCCCN1CCN(C)CC1 | 562 s |

| SMILES | RP-LC retention time |
| --- | --- |
| O=C(Cc1csc(NS(=O)(=O)c2ccc(Cl)cc2)n1)NCc1cccs1 | 725 s |
| COC(=O)c1cc(C2CC2)nc2c1c(=O)n(Cc1cccc(F)c1)c(=O)n2C | 1130 s |
| O=C(NCC(=O)N1CCN(c2ccccc2Cl)CC1)c1c[nH]c2ccccc12 | 785 s |
| CCC(=O)n1nc(-c2ccccc2Cl)nc1N | 837 s |
| COCCNC(=O)c1nc(-c2ccnc(N3CCC(C)CC3)c2)no1 | 670 s |
| COC(=O)c1c(C)[nH]c(C(=O)N2CCC(CC(=O)NCCc3c(C)noc3C)CC2)c1C | 654 s |
| COc1ccc(F)cc1S(=O)(=O)N(C)CC1(C)CCOCC1 | 864 s |
| COc1ccc(-n2c(=O)n(C)c(=O)c3cc(C(=O)Nc4cccc(OC)c4)cnc32)cc1 | 1020 s |
| COc1ccc(C(=O)Nc2cnn(C)c(=O)c2N2CCOCC2)cc1OC | 684 s |
| O=C(CC(c1ccc(F)cc1)N1Cc2ccccc2C1=O)NCCCN1CCCC1 (centres undefined) | 619 s |
| Cc1cc([N+](=O)[O-])ccc1NC(=O)C(=O)NCc1cccs1 | 864 s |
| O=C1CCCN1CCCN1C(=O)[C@H]2CN(Cc3cccc(F)c3F)C[C@H]2C1=O | 625 s |
| Cc1ccc(-c2nc3ccc(C)cn3c2Nc2ccc3c(c2)OCO3)cc1 | 725 s |
| Cc1noc(-c2ccc(NC(=O)COc3ccc(Cl)cc3Cl)cc2)n1 | 1030 s |
| COc1ccccc1N1CCN(c2ncc(C(=O)Nc3ccccc3)c(N)n2)CC1 | 742 s |
| CCN1C(=O)c2cccnc2Sc2cc(NC(=O)C3(c4ccc(OC)cc4)CC3)ccc21 | 939 s |
| Cc1nc2cc(-c3noc(-c4ccccn4)n3)ccc2n(C2CCCC2)c1=O | 991 s |
| CC(C(=O)N1CCOCC1)C1CCN(C(=O)c2ccc3nc(-c4ccccc4)oc3c2)CC1 (centres undefined) | 718 s |
| O=C(NCc1nnnn1C1CCCCC1)OCc1ccccc1 | 757 s |
| CC(C)(C)n1nnnc1C1CC2(CCOCC2)C(=O)N1Cc1ccc(F)cc1 (centres undefined) | 798 s |
| COc1ccc(-c2ccc(=O)n(CCCNC(=O)c3ccc(C(F)(F)F)cc3)n2)cc1 | 824 s |
| O=C(Cc1ccc(NC(=O)Nc2ccccc2Cl)cc1)NCC(F)(F)F | 696 s |

Second part, the compound after the results:

| RP-LC retention time | SMILES |
| --- | --- |
| 870 s | O=C(N[C@H]1C[C@@H]2C[C@H]1N(S(=O)(=O)c1cc(F)cc(F)c1)C2)c1ccccc1 |
| 816 s | COCCN1C(=O)c2ccccc2C(C(=O)Nc2ccc3c(c2)OCO3)C12CCCC2 (centres undefined) |
| 694 s | CCOC(=O)c1c(C)[nH]c(C(=O)N2CCC(CC(=O)NCc3ccc(OC)cc3)CC2)c1C |
| 619 s | COc1ccc(N2C(=O)CCC(C(=O)N3CCOCC3)C2c2ccc(OC)c(OC)c2)cc1 (centres undefined) |
| 683 s | COc1ccccc1OCC(O)CN1CCN(CC(=O)Nc2c(C)cccc2C)CC1 (centres undefined) |
| 827 s | CCS(=O)(=O)N1CCCN(C2=NS(=O)(=O)C(c3ccc(C)cc3)=C2C)CC1 |
| 638 s | CCCN1CCN(c2cc(C(=O)O)c3cc(NS(=O)(=O)c4ccc(C)cc4)ccc3n2)CC1 |
| 932 s | Cc1noc(-c2ccc(OC3CN(S(=O)(=O)c4cccc5nsnc45)C3)cc2)n1 |
| 778 s | CCOC(=O)c1c(C)[nH]c(C(=O)N2CCC(C(C)C(=O)NCc3ccc4c(c3)OCO4)CC2)c1C (centres undefined) |
| 872 s | CCC1Oc2ccc(S(=O)(=O)N3CCC(C(=O)N(C)c4cccc(C)c4)CC3)cc2NC1=O (centres undefined) |
| 775 s | CN(C)CCNC(=O)CN1C(=O)C2CCCCN2c2ccc(S(=O)(=O)N3CCCC3)cc21 (centres undefined) |
| 788 s | COc1cccc(OCC2c3ccsc3CCN2C(=O)CN(CC2CCCO2)C(C)=O)c1 (centres undefined) |
| 750 s | Cc1c(Cl)cccc1NC(=O)N(C)CC1CCOCC1 |
| 662 s | O=C(COc1ccc(-c2nnc3n2CCCC3)cc1)NCc1ccc2c(c1)OCO2 |
| 606 s | O=C(Cc1ccc(F)cc1)N1CCN(C(=O)c2cc(-c3cccnc3)n[nH]2)CC1 |
| 655 s | Cc1ccc(S(=O)(=O)N2CCC3(CCC(CN4CCN(C)CC4)O3)CC2)cc1Cl (centres undefined) |
| 682 s | Cc1noc(C)c1S(=O)(=O)N1CCC(n2c(C)cnc2-c2ccccc2)CC1 |
| 713 s | COc1ccc(NC(=O)Cn2cc(C(=O)N3CCCCC3)c(=O)c3ccc(C)nc32)cc1 |
| 1020 s | Cc1ccc(S(=O)(=O)N2CCc3c(c(-c4nnc(-c5ccccc5)o4)nn3C)C2)c(C)c1 |
| 573 s | CC(C)N(CC(=O)N1CCNCC1)C(=O)c1cccc(Br)c1 |
